We go through 91 molecules from a melting point compilation (Tetko et al.; mined from patent text by program, amines drawn as free bases though some values may be those of a salt).

In general, melting point refers to the temperature of the solid-liquid transition.

`COc1cc2c(NC3=CC(=O)C(Cl)=CC3=O)ncnc2cc1OCC1CCCCO1` (stereo unspecified): the melting point lay within 215 to 220 °C.
`CCCCNC(=O)NS(=O)(=O)c1sccc1C` displayed a melting point of 144 to 146 °C.
As for `CCc1cc(C(=O)c2ccccc2Cl)c(-n2c(C)nnc2CNC(=O)c2cccc(C(=O)O)c2)s1`, the melting point lay in the range of 133 to 136 °C.
In the case of `COCCCNC(N)=O` it was 128 to 130 °C.
In the case of `CC12CCC(=O)C=C1CCC1C2CCC2(C)C(C(F)F)CCC12` (stereo unspecified) it was 137 to 140 °C.
To `CCOc1ccc2c(c1)C(N)(c1ccccc1Cl)C(=O)N2` (stereo unspecified) belongs 173 to 175 °C; to `O=C(O)COCC(Cc1ccccc1)NC(=O)OCc1ccccc1` (stereo unspecified), 96 to 100 °C; to `Cn1nc(C(F)(F)F)cc1Oc1cccc(C(=O)NCC(F)(F)F)n1`, 136 °C.
In turn, `CCCCOc1nc(N)c2[nH]c(=O)n(CCCN(CCCN3CCOCC3)Cc3cccc(CC(=O)OC)c3)c2n1` yielded a melting point of 153 °C.
As to `COc1ccc(COC(=O)C2=C3[C@@H](C)[C@H](C)[C@@H]3S[C@@H]3[C@H](NC(=O)Cc4ccccc4)C(=O)N23)cc1`, the melting point is 172 to 173 °C.
To `O=S(=O)(NC1CCCCC1)c1ccc(Nc2nccc(N3CCCc4c(O)cccc43)n2)cc1` belongs 236 to 238 °C; to `CCCN(C)CCCN1CCN(c2cc(-c3ccnc(NCc4cccc(OC)c4)n3)cc3ccc(OC)cc23)CC1`, 156 to 160 °C; to `CC(=Nc1ccccc1C(C)C)Nc1ccccc1C(C)C`, 94 to 96 °C.
To `Cc1cccc(C)c1NC(=O)CCCl` belongs 131 °C; to `Cc1cccc(SCCC(=O)O)c1`, 73 to 75.5 °C.
In the case of `Nc1nc(N)c(-c2cccc(Cl)c2Cl)c(COc2ccccc2)n1` it was 211 to 213 °C; in that of `CC(C)c1nn(-c2ccc(C(F)(F)F)cn2)cc1CCCOc1cccc(CC(=O)O)c1`, 82 to 83 °C.
`CCSc1cn(C)cc(-c2ccccc2)c1=O` displayed a melting point of 94 to 95 °C.
`COc1cc(CCC2OCCO2)ccc1OCc1nc(-c2ccccc2)oc1C` came in with a melting point of 90 to 91 °C.
Take `Cc1ncccc1Oc1ccc(NC(=O)N2CCc3c(n(C)c4ccccc34)CC2)cn1`: the melting point lay within 159 to 160 °C.
The molecule `COC(=O)c1nnn(C)c1C(=O)OC` gave a melting point of 63 to 64 °C.
`COc1ccccc1N1CCN(CCCNC(=O)c2cc(N)cc3c(=O)c(C)c(-c4ccccc4)oc23)CC1` displayed a melting point of 218 to 219 °C.
In the case of `CCOC(=O)c1c(C)nn(-c2ccccc2[N+](=O)[O-])c1C`, the melting point lay in the range of 128 to 130 °C.
In the case of `CN1CC2c3ccc(C=O)n3Cc3ccccc3N2C(=O)C1=O` (stereo unspecified) it was 300 to 302 °C.
To `CSc1cc2ccccc2cc1C=O` belongs 53.5 to 54.5 °C.
For the molecule `COC(=O)CCc1ccc(-n2c(-c3ccccc3)nn(-c3ccc(C#N)cc3)c2=O)cc1`, the melting point fell in the range of 190 to 194 °C.
With `CCOC(=O)/C=C/C(=C(c1ccc(F)cc1)c1ccc(F)cc1)C(C)C`, the melting point fell in the range of 66 to 67 °C.
To `CC(=O)OCC1OC(n2ccc3c(Br)cccc32)C(OC(C)=O)C(OC(C)=O)C1OC(C)=O` (stereo unspecified) belongs 166 to 167 °C.
With `COc1ccc(CCc2oc3ccc(Br)cc3c2CO)cc1`, the melting point fell in the range of 65 to 75 °C.
`Cc1ccc(Nc2nc(-c3ccccn3)cs2)nc1` displayed a melting point of 184 to 190 °C.
The molecule `O=C(NCCCCCCNC(=O)OC1CCCCC1)OC1CCCCC1` returned a melting point of 98 to 100 °C.
`CCOC(=O)c1ccc(-c2nc3cc4c(cc3[nH]2)NC(=O)C4(C)C)c(OC)c1` displayed a melting point of 235 to 240 °C.
`COC(=O)C1=C(C)NC(C)=C(C#N)C1c1cccc2ncc(-c3ccccc3)cc12` (stereo unspecified) came in with a melting point of 242 °C.
`COC(=O)c1ccc(OCCCN2C(=O)c3ccccc3C2=O)c(OC)c1` had a melting point of 127 to 128 °C.
In the case of `CN1CCCN(C2=Nc3cc(Cl)ccc3Nc3ccccc32)CC1` it was 143 to 145 °C.
In the case of `CC(C)(C)OC(=O)n1ccc(-c2ccc(F)cc2)c1-c1ccc(S(C)(=O)=O)cc1` it was 262 °C.
Molecule `CC1(C2CCCC2)Cc2cc(OC3=C(O)C(=O)NC3=O)c(Cl)c(Cl)c2C1=O` (stereo unspecified) yielded a melting point of 181 to 183 °C.
In the case of `COC(=O)C(=CN1c2ccc(F)c(F)c2OCC1C)C(=O)OC` (stereo unspecified) it was 146 to 147 °C.
For `CC1(Oc2ccc(N)cc2)C2CC3CC(C2)CC1C3` (stereo unspecified), the melting point is 95.6 to 97.9 °C.
Molecule `Oc1cccc2c1OCO2` yielded a melting point of 62 to 63 °C.
In the case of `COc1ccc(-c2nc3ccc(C(=O)O)cc3[nH]2)cc1C12CC3CC(CC(C3)C1)C2`, the melting point lay within 358 to 359 °C.
The molecule `O=C(c1cccnc1)N1CCC=N1` registered a melting point of 81 to 82 °C.
In the case of `O=S(=O)(Nc1cccc(CCOCc2csc(-c3ccccc3Cl)n2)c1)C(F)(F)F` it was 86 to 87 °C.
To `Cc1cc2c(cc1Cl)[nH]c1c(C(=O)O)cccc12` belongs 310 °C.
As for `COc1ccc(-c2cn(C)cc(-c3cccc(C(F)(F)F)c3)c2=O)cc1OC`, the melting point was in the range of 148 to 150 °C.
To `O=C1c2ccccc2C(=O)N1CC1CC1c1cccc2nnsc12` (stereo unspecified) belongs 123 to 125 °C; to `Cc1c(C)n2c3c(cccc13)CCc1ccccc1-2`, 76 to 77 °C.
In the case of `Cn1cc(-c2nsc(Cl)n2)c2ccccc21` it was 93 to 94 °C; in that of `Sc1nc2ccc(Cl)cc2c2nc(-c3ccc(Br)o3)nn12`, 273 to 276 °C; in that of `COc1cc(C(=O)O)ccc1Cn1nc(OC)c2ccc(NC(=O)OC3CCCC3)cc21`, 199 to 200 °C.
To `Cc1cc(-c2cnn3c(C(F)(F)F)cc(-c4ccc(F)c(Cl)c4)nc23)cc(C)n1` belongs 271 °C.
In the case of `CCCCCc1c(/C=C/C(=O)O)sc2cc(OC)ccc12`, the melting point lay in the range of 209 to 210 °C.
For `COc1cccc(Sc2ccnc(Nc3ccc(N4CCOCC4)cc3)n2)c1`, the melting point was in the range of 159 to 161 °C.
Consider `CC(C)C1(C)N=C2c3ncc(C4OCCO4)cc3C(=O)N2C1=O` (stereo unspecified), for which the melting point was in the range of 102 to 104 °C.
In the case of `COC(=O)C(C(=O)Nc1ccc(F)cc1)=C1SCS1` it was 141 to 142 °C.
To `NS(=O)(=O)c1cc(C=O)co1` belongs 281 to 284 °C; to `CC(C)(C)c1cc(N(C(=O)C=CC(=O)O)c2ccccc2)cc(C(C)(C)C)c1O`, 154 to 157 °C; to `COc1cc(Cl)cc(CC#N)c1Cl`, 53 to 57 °C.
To `CCOC(=O)C(O)C1OC(n2cnc3c(N)ncnc32)C(O)C1O` (stereo unspecified) belongs 265 to 268 °C; to `O=C(NCc1ccccc1)Nc1ccc(N2CC(c3ccccc3)CC2=O)cn1` (stereo unspecified), 172 to 173 °C.
In the case of `O=S(=O)(/C=C/c1ccccc1)c1ncc(Cl)cn1`, the melting point was found to be 150 °C.
`Nc1cc(-c2cccnc2)nc(-c2ccco2)n1` returned a melting point of 233 °C.
In the case of `CCOc1nc2cc(C)nn2c2c1cnc1c2cnn1CC` it was 142 to 144 °C; in that of `OCC1OC(n2c(Cl)nc3cc(Cl)c(Cl)cc32)C(F)C1O` (stereo unspecified), 223 °C.
In turn, `Cc1ccc2c(c1)C(=O)C(=O)N2CCN(C(C)C)C(C)C` registered a melting point of 65 to 67 °C.
To `CC1(Br)CS(=O)C2C(NC(=O)Cc3ccccc3)C(=O)N2C1C(=O)OCC(Cl)(Cl)Cl` (stereo unspecified) belongs 159 to 161 °C; to `COC(=O)c1ccc(CCCc2cnc3nc(N)nc(O)c3c2)cc1`, above 250 °C; to `CCC(=O)Nc1nnc2c3c(c(N4CCOCC4)nn12)CCCC3`, 164 to 166 °C.
On to `CCOC(=O)c1cc2c(nc1CCl)CCCCC2`, for which the melting point lay within 81 to 82 °C.
The molecule `Cc1cc(C(=O)O)cc(C)c1C(O)c1cc(-n2ccnc2)ccc1Cl` (stereo unspecified) gave a melting point of 317 to 320 °C.
In the case of `CC(=O)c1ccc(Nc2ccccc2C(C)=C(Cl)Cl)cc1` it was 81 to 82 °C; in that of `COc1ccc(S(=O)(=O)N2C(=O)C(NCCC(=O)OC(C)(C)C)(c3ccccc3OC)c3cc(Cl)ccc32)c(OC)c1` (stereo unspecified), 175 °C; in that of `CCN1CCN(c2ccc(Br)cc2)CC1`, 112 °C.
Regarding `COc1ccc(-c2nc(S(=O)CC3OCCO3)[nH]c2-c2ccc(OC)cc2)cc1` (stereo unspecified), the melting point fell in the range of 203 to 204 °C.
As to `CCCCN1C(N)=NS(=O)(=O)NC1Oc1cccc(C)c1` (stereo unspecified), the melting point lay in the range of 217 to 219 °C.
In turn, `CC(O)(C(N)=O)c1ccc(OS(=O)(=O)C(F)(F)F)cc1` (stereo unspecified) had a melting point of 105 to 107 °C.
Turning to `CC(C)COC(=O)NC1=NCC(c2ccccc2)N1C` (stereo unspecified), the melting point is 103 to 104 °C.
Take `O=C(Oc1ccc(Cl)cc1[N+](=O)[O-])c1ccccc1O`: the melting point was in the range of 155 to 160 °C.
In the case of `Nc1ncnc2c1nc(OC(=O)c1ccccc1)n2Cc1ccccc1` it was 227 to 229 °C; in that of `COC(=O)c1sccc1Nc1ccccc1[N+](=O)[O-]`, 184 °C.
In the case of `CCC(C)n1cc(Cl)nc(N2CCc3cc(OC)cc(Br)c32)c1=O` (stereo unspecified) it was 155 to 157 °C.
In the case of `CCCC[C@H](NC(=O)OC(C)(C)C)C(=O)CSCc1ccsc1` it was 43 to 45 °C.
In turn, `COCOc1ccccc1-c1cc(-c2cccc(C(=O)OC)c2)c(C#N)c(N)n1` showed a melting point of 129 to 130 °C.
In the case of `CC(C)CC1CCCCCc2c1oc(=O)c(C(c1ccccc1)C1CC1)c2O` (stereo unspecified) it was 86 to 92 °C; in that of `O=C(CN1CCN(c2ccccc2)CC1)c1ccccc1`, 104 to 106 °C.
For the molecule `Cc1ccc(OCc2ccccc2)c2[nH]c(-c3ccccc3)nc12`, the melting point lay within 221 to 224 °C.
In turn, `Nc1nc(N)c2c(ccc3[nH]c(-c4ccccc4)cc32)n1` came in with a melting point of 322 to 323 °C.
For `CC(C)=CCCC(C)C1CCC2C3CC(O)C4CC(O)CCC4(C)C3CCC12C` (stereo unspecified), the melting point lay within 188 to 190 °C.
To `CC1(C)OC(=O)C(C(=O)Nc2ccc(Cl)c(Cl)c2)=C(O)O1` belongs 132 to 134 °C; to `COC(C)Cn1c(C)nc2c(N)nc3ccccc3c21` (stereo unspecified), 196 to 197 °C; to `COC(=O)CCCC#Cc1cc(F)cc(C(F)(F)F)c1`, 44 to 45 °C.
